Reference: patent US8747873B2, “Compositions of dibromomalonamide and their use as biocides” (Dow Global Technologies LLC, priority 2012, dated 2014)
Like-named read-outs stand apart in the source and are kept apart here.

Tests used:
[1] = test system: mixture of Pseudomonas aeruginosa, Klebsiella pneumoniae, Staphylococcus aureus, and Bacillus subtilis; assay: Growth inhibition assay; type: cell-based; conditions: 24 h; for inhibition at 0.19 µg/mL / inhibition at 0.39 µg/mL / inhibition at 0.78 µg/mL / inhibition at 1.56 µg/mL / inhibition at 3.13 µg/mL / inhibition at 6.25 µg/mL / inhibition at 12.5 µg/mL / inhibition at 25 µg/mL: read-out: % Inhibition of growth by DBMAL
Text: The growth inhibition assay used in the Examples measures inhibition of growth (or lack thereof) of a microbial consortium. Inhibition of growth can be the result of killing of the cells (so no growth occurs), killing of a significant portion of the populations of cells so that regrowth requires a prolonged time, or inhibition of growth without killing (stasis). Regardless of the mechanism of action, the impact of a biocide (or combination of biocides) can be measured over time on the basis of an increase in the size of the community.
The assay measures the efficacy of one or more biocides at preventing growth of a consortium of bacteria in a dilute mineral salts medium. The medium contains (in mg/l) the following components: FeCl3.6H2O (1); CaCl2.2H2O (10); MgSO4.7H2O (22.5); (NH4)2SO4 (40); KH2PO4 (10); K2HPO4 (25.5); Yeast Extract (10); and glucose (100). After all components are added to deionized water, the pH of the medium is adjusted to 7.5. Following filter sterilization, aliquots are dispensed in 100 ul quantities to sterile microtiter plate wells. Dilutions of DBMAL and/or “Biocide B” are then added to the microtiter plate. After preparing the combinations of actives as illustrated below, each well is inoculated with 100 μl of a cell suspension containing ca. 1×10^6 cells per milliliter of a mixture of Pseudomonas aeruginosa, Klebsiella pneumoniae, Staphylococcus aureus, and Bacillus subtilis. The final total volume of medium in each well is 300 μl. […] The resulting matrix allows testing of eight concentrations of each active and 64 combinations of actives in the ratios (of actives).
Controls (not shown) contain the medium with no biocide added. After preparing the combinations of actives as illustrated above, each well is inoculated with 100 μl of a cell suspension containing ca. 1×10^6 cells per milliliter of a mixture of Pseudomonas aeruginosa, Klebsiella pneumoniae, Staphylococcus aureus, and Bacillus subtilis. The final total volume of medium in each well is 300 μl.
Immediately after the microtiter plates are prepared, the optical density (OD) readings for each well is measured at 580 nm and the plates are then incubated at 37° C. for 24 hr. After the incubation period, the plates are gently agitated before OD580 values are collected. The OD580 values at T0 are subtracted from T24 values to determine the total amount of growth (or lack thereof) that occurs. These values are used to calculate the percent inhibition of growth caused by the presence of each biocide and each of the 64 combinations. A 90% inhibition of growth is used as a threshold for calculating synergy index (SI) values with the following equation: Synergy Index=MDBMAL/CDBMAL+MB/CB
where • CDBMAL: Concentration of DBMAL required to inhibit ˜90% of bacterial growth when used alone • CB: Concentration of biocide (B) required to inhibit ˜90% of bacterial growth when used alone. • MDBMAL: Concentration of DBMAL required to inhibit ˜90% of bacterial growth when used in combination with biocide (B). • MB: Concentration of biocide (B) required to inhibit ˜90% of bacterial growth when used in combination with DBMAL The SI values are interpreted as follows: • SI<1: Synergistic combination • SI=1: Additive combination • SI>1: Antagonistic combination

[2] = test system: mixture of Pseudomonas aeruginosa ATCC 10145 and Staphylococcus aureus ATCC 6538; assay: Kill assay (MBC, synergy index); type: cell-based; conditions: 37° C., 2 hours
Protocol: This assay is used as a preliminary evaluation of synergy between the actives. The procedure is as follows. A mineral salts solution (0.2203 g of CaCl2, 0.1847 g of MgSO4, and 0.2033 g of NaHCO3 in 1 L water, approximately pH 8) is inoculated with equal amounts (about 10^7 CFU/ml) of a mixture of Pseudomonas aeruginosa ATCC 10145 and Staphylococcus aureus ATCC 6538. Aliquots of the cell suspension are then treated with 2,2-dibromomalonamide (“DBMAL”), […], and their combinations at various concentration levels. […] The MBC values are then used to calculate a synergy index (SI) values.
Summaries of the kill assay results are presented in the individual Examples. In each table, MBC values for each biocide and the blends tested are presented Likewise, the Synergy Index (“SI”) values for the combinations are listed. SI is calculated with the following equation: Synergy Index=Ca/CA+Mb/CB […]

NC(=O)C(Br)(Br)C(N)=O [DBMAL, 2,2-dibromomalonamide]
inhibition at 0.19 µg/mL ([1]; Table 3, DBMAL alone 0.19 mg/l): 0%
inhibition at 0.39 µg/mL ([1]; Table 3, DBMAL alone 0.39 mg/l): 0%
inhibition at 0.78 µg/mL ([1]; Table 3, DBMAL alone 0.78 mg/l): 34%
inhibition at 1.56 µg/mL ([1]; Table 3, DBMAL alone 1.56 mg/l): 11%
inhibition at 3.13 µg/mL ([1]; Table 3, DBMAL alone 3.13 mg/l): 38%
inhibition at 6.25 µg/mL ([1]; Table 3, DBMAL alone 6.25 mg/l): 50%
inhibition at 12.5 µg/mL ([1]; Table 3, DBMAL alone 12.5 mg/l): 107%
inhibition at 25 µg/mL ([1]; Table 3, DBMAL alone 25.0 mg/l): 105%
inhibition at 0.19 µg/mL ([1]; Table 6, DBMAL alone 0.19 mg/l): 0%
inhibition at 0.39 µg/mL ([1]; Table 6, DBMAL alone 0.39 mg/l): 0%
inhibition at 0.78 µg/mL ([1]; Table 6, DBMAL alone 0.78 mg/l): 18%
inhibition at 1.56 µg/mL ([1]; Table 6, DBMAL alone 1.56 mg/l): 34%
inhibition at 3.13 µg/mL ([1]; Table 6, DBMAL alone 3.13 mg/l): 50%
inhibition at 6.25 µg/mL ([1]; Table 6, DBMAL alone 6.25 mg/l): 44%
inhibition at 12.5 µg/mL ([1]; Table 6, DBMAL alone 12.5 mg/l): 97%
inhibition at 25 µg/mL ([1]; Table 6, DBMAL alone 25 mg/l): 100%
inhibition at 0.19 µg/mL ([1]; Table 8, DBMAL alone 0.19 mg/l): 0%
inhibition at 0.39 µg/mL ([1]; Table 8, DBMAL alone 0.39 mg/l): 2%
inhibition at 0.78 µg/mL ([1]; Table 8, DBMAL alone 0.78 mg/l): 0%
inhibition at 1.56 µg/mL ([1]; Table 8, DBMAL alone 1.56 mg/l): 0%
inhibition at 3.13 µg/mL ([1]; Table 8, DBMAL alone 3.13 mg/l): 0%
inhibition at 6.25 µg/mL ([1]; Table 8, DBMAL alone 6.25 mg/l): 0%
inhibition at 12.5 µg/mL ([1]; Table 8, DBMAL alone 12.5 mg/l): 100%
inhibition at 25 µg/mL ([1]; Table 8, DBMAL alone 25.0 mg/l): 100%
inhibition at 0.19 µg/mL ([1]; Table 10, DBMAL alone 0.19 mg/l): 7%
inhibition at 0.39 µg/mL ([1]; Table 10, DBMAL alone 0.39 mg/l): 0%
inhibition at 0.78 µg/mL ([1]; Table 10, DBMAL alone 0.78 mg/l): 0%
inhibition at 1.56 µg/mL ([1]; Table 10, DBMAL alone 1.56 mg/l): 0%
inhibition at 3.13 µg/mL ([1]; Table 10, DBMAL alone 3.13 mg/l): 0%
inhibition at 6.25 µg/mL ([1]; Table 10, DBMAL alone 6.25 mg/l): 52%
inhibition at 12.5 µg/mL ([1]; Table 10, DBMAL alone 12.5 mg/l): 99%
inhibition at 25 µg/mL ([1]; Table 10, DBMAL alone 25.0 mg/l): 100%
inhibition at 0.19 µg/mL ([1]; Table 12 (4,4-D), DBMAL alone 0.19 mg/l): 0%
inhibition at 0.39 µg/mL ([1]; Table 12 (4,4-D), DBMAL alone 0.39 mg/l): 6%
inhibition at 0.78 µg/mL ([1]; Table 12 (4,4-D), DBMAL alone 0.78 mg/l): 0%
inhibition at 1.56 µg/mL ([1]; Table 12 (4,4-D), DBMAL alone 1.56 mg/l): 2%
inhibition at 3.13 µg/mL ([1]; Table 12 (4,4-D), DBMAL alone 3.13 mg/l): 0%
inhibition at 6.25 µg/mL ([1]; Table 12 (4,4-D), DBMAL alone 6.25 mg/l): 0%
inhibition at 12.5 µg/mL ([1]; Table 12 (4,4-D), DBMAL alone 12.5 mg/l): 100%
inhibition at 25 µg/mL ([1]; Table 12 (4,4-D), DBMAL alone 25.0 mg/l): 100%
inhibition at 0.19 µg/mL ([1]; Table 12 (TEHT), DBMAL alone 0.19 mg/l): 13%
inhibition at 0.39 µg/mL ([1]; Table 12 (TEHT), DBMAL alone 0.39 mg/l): 8%
inhibition at 0.78 µg/mL ([1]; Table 12 (TEHT), DBMAL alone 0.78 mg/l): 30%
inhibition at 1.56 µg/mL ([1]; Table 12 (TEHT), DBMAL alone 1.56 mg/l): 32%
inhibition at 3.13 µg/mL ([1]; Table 12 (TEHT), DBMAL alone 3.13 mg/l): 45%
inhibition at 6.25 µg/mL ([1]; Table 12 (TEHT), DBMAL alone 6.25 mg/l): 32%
inhibition at 12.5 µg/mL ([1]; Table 12 (TEHT), DBMAL alone 12.5 mg/l): 97%
inhibition at 25 µg/mL ([1]; Table 12 (TEHT), DBMAL alone 25.0 mg/l): 96%
concentration needed to provide at least 90% inhibition of growth ([1]; biocide alone): 12.5 mg/L
MBC (minimum biocide concentration needed to completely kill), biocide alone [2]: 66.7 mg/L
